Active and inactive are the calls of the source. The rule behind the calls is not given here.
Tested on: Haemonchus contortus
Experiment: Nematocidal activity against Haemonchus contortus
Assay type: functional

Compound	LD99 [µg/mL]	Activity
COC(=O)/C=C/c1c[nH]c2cc(Br)ccc12	50	–
CCOC(=O)/C=C/c1c[nH]c2cc(Br)ccc12	42	–
CNc1c(N(C)C=O)c(=O)n(C)c(=O)n1C	–	inactive
COC(=O)/C=C\c1c[nH]c2cc(Br)ccc12	50	–
CCOC(=O)/C=C\c1c[nH]c2cc(Br)ccc12	42	–

From ChEMBL document CHEMBL1159332, “Equilibrating isomers: bromoindoles and a seco-xanthine encountered during a study of nematocides from the southern Australian marine sponge Hymeniacidon sp” (2002)
